Measured values taken from US9765087B2, “Benzimidazole derivatives” (ENANTA PHARMACEUTICALS, INC., priority 2009, dated 2017).

Test system: HCV 1b genotype replicon
Assay: HCV replicon assay (qRT-PCR or luciferase), genotype 1b
Type: cell-based
Settings: Hepatitis C virus, Table 11, qRT-PCR or luciferase assay, read-out: Genotype-1b replicon EC50 Range
Description: HCV replicon cell lines (kindly provided by R. Bartenschlager) isolated from colonies as described by Lohman et. al. (Lohman et al. (1999) Science 285: 110-113, expressly incorporated by reference in its entirety) and used for all experiments. The HCV replicon has the nucleic acid sequence set forth in EMBL Accession No.: AJ242651, the coding sequence of which is from nucleotides 1801 to 8406.
The coding sequence of the published HCV replicon was synthesized and subsequently assembled in a modified plasmid pBR322 (Promega, Madison, Wis.) using standard molecular biology techniques. One replicon cell line (“SGR 11-7”) stably expresses HCV replicon RNA which consists of (i) the HCV 5′UTR fused to the first 12 amino acids of the capsid protein, (ii) the neomycin phosphotransferase gene (neo), (iii) the IRES from encephalomyocarditis virus (EMCV), and (iv) HCV […] to NSSB genes and the HCV 3′UTR. Another replicon cell line (“Huh-luc/neo-ET”) described by Vrolijk et. al. (Vrolijk et. al. (2003) Journal of Virological Methods 110:201-209, expressly incorporated by reference in its entirety) stably expresses HCV replicon RNA which consists of (i) the HCV 5′UTR fused to the first 12 amino acids of the capsid protein, (ii) the firefly luciferase reporter gene, (iii) the ubiquitin gene, (iv) the neomycin phosphotransferase gene (neo), (v) the IRES from encephalomyocarditis virus (EMCV), and (vi) HCV NS3 to NS5B genes that harbor cell culture adaptive mutations (E1202G, T1280I, K1846T) and the HCV 3′UTR.
These cell lines were maintained at 37° C., 5% CO2, 100% relative humidity in DMEM (Cat#11965-084, Invitrogen), with 10% fetal calf serum (“FCS”, Invitrogen), 1% non-essential amino acids (Invitrogen), 1% of Glutamax (Invitrogen), 1% of 100× penicillin/streptomycin (Cat#15140-122, Invitrogen) and Geneticin (Cat#10131-027, Invitrogen) at 0.75 mg/ml or 0.5 mg/ml for 11-7 and Huh-luc/neo-ET cells, respectively.
EC50 values of single agent compounds and combinations were determined by HCV RNA detection using quantitative RT-PCR, according to the manufacturer's instructions, with a TAQMAN® One-Step RT-PCR Master Mix Reagents Kit (Cat#AB 4309169, Applied Biosystems) on an ABI Model 7500 thermocycler. The TaqMan primers used for detecting and quantifying HCV RNA were obtained from Integrated DNA Technologies. HCV RNA was normalized to GAPDH RNA levels in drug-treated cells, which is detected and quantified using the Human GAPDH Endogenous Control Mix (Applied Biosystems, AB 4310884E). Total cellular RNA is purified from 96-well plates using the RNAqueous 96 kit (Ambion, Cat# AM1812). Chemical agent cytotoxicity is evaluated using an MTS assay according to the manufacturer's directions (Promega).
Since clinical drug resistance often develops in viral infections following single agent therapies, there is a need to assess the additive, antagonistic, or synergistic properties of combination therapies. We used the HCV replicon system to assess the potential use of the compound of the present invention or in combination therapies with Interferon alpha, cyclosporine analogs and inhibitors targeting other HCV proteins. The acute effects of a single or combinations of drugs are studied in the “Huh-luc/neo-ET” replicon with each chemical agent titrated in an X or Y direction in a 6 point two-fold dilution curve centered around the EC50 of each drug. Briefly, replicon cells are seeded at 7,000 cells per well in 90 ul DMEM (without phenol red, Invitrogen Cat.#31053-036) per well with 10% FCS, 1% non-essential amino acids, 1% of Glutamax and 1% of 100× penicillin/streptomycin and incubated overnight at 37° C., 5% CO2, 100% relative humidity. […]

Row | SMILES | EC50
1 | COC(=O)N[C@H](C(=O)N1CCC[C@H]1c1nc(-c2ccc3cc(-c4cc5nc([C@@H]6CCCN6C(=O)[C@@H](NC(=O)OC)C(C)C)[nH]c5cc4Cl)ccc3c2)c[nH]1)C(C)C [Example 490] | < 1 nM
2 | COC(=O)N[C@H](C(=O)N1CCC[C@H]1c1nc(-c2ccc(/C=C/c3ccc4[nH]c([C@@H]5CCCN5C(=O)[C@@H](NC(=O)OC)C(C)C)nc4c3)cc2)c[nH]1)C(C)C [Example 492] | < 1 nM
3 | C=C(c1ccc(-c2c[nH]c([C@@H]3CCCN3C(=O)[C@@H](NC(=O)OC)C(C)C)n2)cc1)c1ccc2nc([C@@H]3CCCN3C(=O)[C@@H](NC(=O)OC)C(C)C)[nH]c2c1 [Example 493] | < 1 nM
4 | COC(=O)N[C@H](C(=O)N1CCC[C@H]1c1nc(-c2ccc(CCc3ccc4[nH]c([C@@H]5CCCN5C(=O)[C@@H](NC(=O)OC)C(C)C)nc4c3)cc2)c[nH]1)C(C)C [Example 494] | < 1 nM
5 | COC(=O)N[C@H](C(=O)N1CCC[C@H]1c1ncc(-c2ccc([C@H]3C[C@@H]3c3ccc4nc([C@@H]5CCCN5C(=O)[C@@H](NC(=O)OC)C(C)C)[nH]c4c3)cc2)[nH]1)C(C)C [Example 497-a] | < 1 nM
6 | COC(=O)N[C@H](C(=O)N1CCC[C@H]1c1ncc(-c2ccc([C@@H]3C[C@H]3c3ccc4nc([C@@H]5CCCN5C(=O)[C@@H](NC(=O)OC)C(C)C)[nH]c4c3)cc2)[nH]1)C(C)C [Example 497-b] | < 1 nM
7 | COC(=O)N[C@H](C(=O)N1CCC[C@H]1c1ncc(-c2ccc(-c3ccc(-c4ccc5nc([C@@H]6CCCN6C(=O)[C@@H](NC(=O)OC)C(C)C)[nH]c5c4)cc3)cc2)[nH]1)C(C)C [Example 499] | < 1 nM
8 | COC(=O)N[C@H](C(=O)N1CCC[C@H]1c1nc(-c2ccc(C#Cc3ccc4[nH]c([C@@H]5CCCN5C(=O)OC(C)(C)C)nc4c3)cc2)c[nH]1)C(C)C [Example 500] | 1 to 10 nM
9 | COC(=O)N[C@@H](C)C(=O)N1CCC[C@H]1c1nc2cc(C#Cc3ccc(-c4c[nH]c([C@@H]5CCCN5C(=O)[C@@H](NC(=O)OC)C(C)C)n4)cc3)ccc2[nH]1 [Example 501] | < 1 nM
10 | CC[C@H](NC(=O)OC)C(=O)N1CCC[C@H]1c1nc2cc(C#Cc3ccc(-c4c[nH]c([C@@H]5CCCN5C(=O)[C@@H](NC(=O)OC)C(C)C)n4)cc3)ccc2[nH]1 [Example 502] | < 1 nM
11 | CCC[C@H](NC(=O)OC)C(=O)N1CCC[C@H]1c1nc2cc(C#Cc3ccc(-c4c[nH]c([C@@H]5CCCN5C(=O)[C@@H](NC(=O)OC)C(C)C)n4)cc3)ccc2[nH]1 [Example 503] | < 1 nM
12 | COC(=O)N[C@H](C(=O)N1CCC[C@H]1c1nc(-c2ccc(C#Cc3ccc4[nH]c([C@@H]5CCCN5C(=O)[C@H](NC(=O)OC)c5ccccc5)nc4c3)cc2)c[nH]1)C(C)C [Example 504] | < 1 nM
13 | COC(=O)N[C@H](C(=O)N1CCC[C@H]1c1nc(-c2ccc(C#Cc3ccc4[nH]c([C@@H]5CCCN5C(=O)[C@@H](NC(=O)OC)[C@@H](C)OC)nc4c3)cc2)c[nH]1)C(C)C [Example 505] | < 1 nM
14 | COC(=O)N[C@H](C(=O)N1CCC[C@H]1c1nc(-c2ccc(C#Cc3ccc4[nH]c([C@@H]5CCCN5C(=O)[C@@H](NC(C)=O)C(C)C)nc4c3)cc2)c[nH]1)C(C)C [Example 506] | < 1 nM
15 | COC(=O)N[C@H](C(=O)N1CCC[C@H]1c1nc(-c2ccc(C#Cc3ccc4[nH]c([C@@H]5CCCN5C(=O)[C@@H](c5ccccc5)C(C)C)nc4c3)cc2)c[nH]1)C(C)C [Example 507] | < 1 nM
16 | COC(=O)N[C@H](C(=O)N1CCC[C@H]1c1nc(-c2ccc(C#Cc3ccc4[nH]c([C@@H]5CCCN5C(=O)[C@H](NC(=O)OC)C(C)C)nc4c3)cc2)c[nH]1)C(C)C [Example 508] | < 1 nM
17 | COC(=O)N[C@H](C(=O)N1CCC[C@H]1c1nc2cc(C#Cc3ccc(-c4c[nH]c([C@@H]5CCCN5C(=O)[C@@H](NC(=O)OC)C(C)C)n4)cc3)ccc2[nH]1)c1ccccc1 [Example 509] | < 1 nM

Row | SMILES | EC50
18 | COC(=O)N[C@H](C(=O)N1CCC[C@H]1c1nc2cc(C#Cc3ccc(-c4c[nH]c([C@@H]5CCCN5C(=O)OC(C)(C)C)n4)cc3)ccc2[nH]1)C(C)C [Example 510] | < 1 nM
19 | COC(=O)N[C@H](C(=O)N1CCC[C@H]1c1nc2cc(C#Cc3ccc(-c4c[nH]c([C@@H]5CCCN5C(=O)[C@@H](NC(C)=O)C(C)C)n4)cc3)ccc2[nH]1)C(C)C [Example 511] | < 1 nM
20 | COC(=O)N[C@H](C(=O)N1CCC[C@H]1c1nc2cc(C#Cc3ccc(-c4c[nH]c([C@@H]5CCCN5C(=O)[C@@H](c5ccccc5)C(C)C)n4)cc3)ccc2[nH]1)C(C)C [Example 512] | < 1 nM
21 | COC(=O)N[C@H](C(=O)N1CCC[C@H]1c1nc2cc(C#Cc3ccc(-c4c[nH]c([C@@H]5CCCN5C(=O)[C@H](NC(=O)OC)C(C)C)n4)cc3)ccc2[nH]1)C(C)C [Example 513] | < 1 nM
22 | COC(=O)N[C@H](C(=O)N1CCC[C@H]1c1nc(-c2ccc(C#Cc3ccc4[nH]c([C@@H]5CCCN5C(=O)[C@@H](NC(=O)OC)C(C)C)nc4c3)cc2)c[nH]1)c1ccccc1 [Example 514] | < 1 nM
23 | COC(=O)N[C@H](C(=O)N1CCC[C@H]1c1ncc(-c2ccc(C#Cc3ccc4nc([C@@H]5CCCN5C(=O)[C@@H](NC(=O)OC)C(C)C)[nH]c4c3)cc2)[nH]1)C(C)C [Example 515] | < 1 nM
24 | COC(=O)N[C@H](C(=O)N1CCC[C@H]1c1nc(-c2ccc(C#Cc3ccc4[nH]c([C@@H]5C[C@@H](O)CN5C(=O)[C@@H](NC(=O)OC)C(C)C)nc4c3)cc2)c[nH]1)C(C)C [Example 517] | < 1 nM
25 | COC(=O)N[C@H](C(=O)N1CCC[C@H]1c1nc(-c2ccc(C#Cc3ccc4[nH]c([C@@H]5CC(F)(F)CN5C(=O)[C@@H](NC(=O)OC)C(C)C)nc4c3)cc2)c[nH]1)C(C)C [Example 519] | < 1 nM
26 | COC(=O)N[C@H](C(=O)N1CCC[C@H]1c1nc(-c2ccc(C#Cc3ccc4[nH]c([C@@H]5CC6(CC6)CN5C(=O)[C@@H](NC(=O)OC)C(C)C)nc4c3)cc2)c[nH]1)C(C)C [Example 521] | < 1 nM
27 | COC(=O)N[C@H](C(=O)N1CC2(CC2)C[C@H]1c1nc(-c2ccc(C#Cc3ccc4[nH]c([C@@H]5CCCN5C(=O)[C@@H](NC(=O)OC)C(C)C)nc4c3)cc2)c[nH]1)C(C)C [Example 523] | < 1 nM
28 | COC(=O)N[C@H](C(=O)N1CC2(CC2)C[C@H]1c1nc(-c2ccc(C#Cc3ccc4[nH]c([C@@H]5CC6(CC6)CN5C(=O)[C@@H](NC(=O)OC)C(C)C)nc4c3)cc2)c[nH]1)C(C)C [Example 525] | < 1 nM
29 | CC[C@H](C)[C@H](NC(=O)OC)C(=O)N1CCC[C@H]1c1ncc(-c2ccc(C#Cc3ccc4nc([C@@H]5CCCN5C(=O)[C@@H](NC(=O)OC)[C@@H](C)CC)[nH]c4c3)cc2)[nH]1 [Example 526] | < 1 nM
30 | COC(=O)N[C@H](C(=O)N1CCC[C@H]1c1ncc(-c2ccc(C#Cc3ccc4nc([C@@H]5CCCN5C(=O)[C@@H](NC(=O)OC)[C@@H](C)O)[nH]c4c3)cc2)[nH]1)[C@@H](C)O [Example 527] | < 1 nM
31 | COC(=O)N[C@H](C(=O)N1CCC[C@H]1c1ncc(-c2ccc(C#Cc3ccc4nc([C@@H]5CCCN5C(=O)[C@@H](NC(=O)OC)C5CC5)[nH]c4c3)cc2)[nH]1)C(C)C [Example 528] | < 1 nM
32 | COC(=O)N[C@H](C(=O)N1CCC[C@H]1c1ncc(-c2ccc(C#Cc3ccc4nc([C@@H]5CCCN5C(=O)[C@@H](NC(=O)OC)C(C)(C)C)[nH]c4c3)cc2)[nH]1)C(C)C [Example 529] | < 1 nM
33 | COC(=O)N[C@H](C(=O)N1CCC[C@H]1c1ncc(-c2ccc(C#Cc3ccc4nc([C@@H]5CCCN5C(=O)[C@@H](NC(=O)OC)C(C)(C)O)[nH]c4c3)cc2)[nH]1)C(C)C [Example 530] | < 1 nM
